For one data set, the target named is T1, CDK9/CyclinT1 (Homo sapiens, UniProt P50750).
T1 construct: purchased Carna
Put plainly: CDK9/CyclinT1 kinase activity assay (ADP-Glo). As to conditions: 100 μM ATP, 25° C., 60 minutes; read-out: Enzyme activity data (IC50) CDK9/CyclinT1. It is filed as biochemical. How it is done: Experimental materials: CDK9/CyclinT1 kinase was purchased from Carna, the ADP-Glo detection kit was purchased from Promega, the PKDTide substrate and kinase reaction buffer were purchased from Signalchem. Nivo Multilabel Analyzer (PerkinElmer).
Experimental method: Kinase buffer dilution enzyme in the kit, substrate, adenosine triphosphate and inhibitor were used. […] The reaction system was placed at 25° C. and reacted for 60 minutes. After the reaction was complete, 5 μL of ADP-Glo reagent was added to each well, and the reaction was continued at 25° C. for 40 minutes. At the end of the reaction, 10 μL of kinase detection reagent was added to each well. After the reaction was continued at 25° C. for 30 minutes, the chemiluminescence was read by a multi-label analyzer with an integration time of 0.5 seconds.
Table 1 provides the enzymatic inhibitory activities of the compounds of the present invention on CDK2/CyclinA2, CDK2/CyclinE1, CDK4/CyclinD1, CDK6/CyclinD1, CDK9/CyclinT1.
(ADP-Glo first removes unused ATP, then detects ADP through luciferase.)

The next data set concerns HCT116 cells. Put plainly: HCT116 cell activity test (CellTiter-Glo). As to conditions: Homo sapiens, HCT-116, 96 h, 4 days, read-out: Antiproliferative activity (IC50) HCT 116. In kind it is cell-based. How it is done:
Experimental materials: McCoy' 5a medium, fetal bovine serum, and penicillin/streptomycin antibiotics were purchased from Vicente. CellTiter-Glo (chemiluminescence detection reagent for cell viability) reagent was purchased from Promega. The HCT116 cell line was purchased from Cobioer Biosciences Co., Ltd. Nivo Multilabel Analyzer (PerkinElmer).
Experimental method: HCT116 cells were seeded in a white 96-well plate, 80 μL of cell suspension per well, which contained 1000 HCT116 cells. The cell plate was incubated overnight in a carbon dioxide incubator. The compounds to be tested were diluted 5-fold to the 9th concentration with a row gun, that is, from 2 mM to 5.12 nM, and a double-replicate well experiment was set up. 78 μL of medium was added to the middle plate, and then transferred 2 μL per well of the gradient diluted compound to the middle plate according to the corresponding position, mixed well and transferred 20 μL per well to the cell plate. […] Another cell plate was prepared, and the signal value was read as the maximum value (Max value in the equation below) on the day of drug addition to participate in data analysis. 25 μL of chemiluminescence detection reagent for cell viability was added to each well of the cell plate, and incubated at room temperature for 10 minutes to stabilize the luminescence signal. A multi-label analyzer was used for reading. […]
(In general: In ATP-based viability assays light output follows the ATP content of the culture.)

A short description of data set [1]: Pharmacokinetic evaluation in female Balb/c mice. It is filed as in vivo. Conditions: mouse, plasma. The procedure:
Healthy adult female Balb/c mice used in this study were purchased from Shanghai Lingchang Biotechnology Co., Ltd.
1.11 mg of the compound to be tested was accurately weighed, 109.8 μL of DMSO was added and vortexed for 1 minute, 109.8 μL of solutol was added and vortexed for 1 minute to obtain a clear solution, then 878 μL of water was added and vortexed for 1 minute to obtain the final solution with a final concentration of 1 mg/mL, the dosing vehicle was 10% DMSO+10% solutol+80% water. The solution in the intravenous injection group was filtered with a 2 μm filter before administration.
1.61 mg of the compound to be tested was accurately weighed, 796 μL of 1% HPMC was added, sonicated at 45° C. for 20 minutes, and stirred for 15 minutes to obtain a homogeneous suspension solution with a final concentration of 2 mg/mL. The dosing vehicle was 1% HPMC.
4 female Balb/c mice were divided into 2 groups according to 2 mice in each group. The first group was given 2 mg/kg of the compound to be tested by intravenous injection; the second group was given 10 mg/kg of the compound to be tested by gavage.
The blood was collected from two animals at each time point by continuous blood collection. 30 μL of whole blood was collected before administration and at 0.0833, 0.25, 0.5, 1, 2 (only gavage group), 4, 6, 8 (only intravenous group), and 24 hours after administration, respectively. The whole blood was placed in an anticoagulant tube, centrifuged at 3200 g for 10 minutes at 4° C., the plasma was prepared and stored at −80° C. Drug concentration in the plasma was determined by LC/MS-MS.

Another data set has as its system HCC1806 cells. Put plainly: HCC1806 cell activity test (CyQUANT). It is filed as cell-based. As to conditions: Homo sapiens, 168 h, 7 days, read-out: Antiproliferative activity (IC50) HCC1806. How it is done: Experimental materials: RPMI-1640 medium, fetal bovine serum, penicillin/streptomycin antibiotics were purchased from Vicente. CyQUANT Cell Proliferation Assays (Cell proliferation assay kit) reagents were purchased from ThermoFisher. The HCC1806 cell line was purchased from Cobioer Biosciences Co., Ltd. Nivo Multilabel Analyzer (PerkinElmer).
Experimental method: HCC1806 cells were seeded in a white 96-well plate, 80 μL of cell suspension per well, which contained 3000 HCC1806 cells. The cell plate was incubated overnight in a carbon dioxide incubator. The compounds to be tested were diluted 5-fold to the 9th concentration with a row gun, that is, from 10 mM to 25.6 nM, and a double-replicate well experiment was set up. 78 μL of medium was added to the middle plate, and then transferred 2 μL per well of the gradient diluted compound to the middle plate according to the corresponding position, mixed well and transferred 20 μL per well to the cell plate. […] After reaching the incubation time, the cell supernatant was removed, and the cell plate was placed in a −80° C. refrigerator for 1 hour, after which 100 μL of Cyquant reagent was added to each well, and a multi-label analyzer was used for reading. Another cell plate was prepared, and the signal value was read as the maximum value (Max value in the equation below) on the day of drug addition to participate in data analysis. […]

T1 sequence (P50750 whole entry): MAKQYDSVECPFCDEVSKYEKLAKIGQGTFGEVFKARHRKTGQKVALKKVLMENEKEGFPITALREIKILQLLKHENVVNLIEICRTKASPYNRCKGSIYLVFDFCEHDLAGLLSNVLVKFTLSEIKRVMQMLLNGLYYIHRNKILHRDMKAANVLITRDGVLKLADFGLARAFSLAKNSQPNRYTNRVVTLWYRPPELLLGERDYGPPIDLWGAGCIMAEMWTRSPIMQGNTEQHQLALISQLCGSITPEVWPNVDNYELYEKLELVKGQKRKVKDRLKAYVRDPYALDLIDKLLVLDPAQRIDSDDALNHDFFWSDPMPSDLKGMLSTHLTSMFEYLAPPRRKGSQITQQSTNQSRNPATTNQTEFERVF
T1 sequence (O60563 whole entry partner): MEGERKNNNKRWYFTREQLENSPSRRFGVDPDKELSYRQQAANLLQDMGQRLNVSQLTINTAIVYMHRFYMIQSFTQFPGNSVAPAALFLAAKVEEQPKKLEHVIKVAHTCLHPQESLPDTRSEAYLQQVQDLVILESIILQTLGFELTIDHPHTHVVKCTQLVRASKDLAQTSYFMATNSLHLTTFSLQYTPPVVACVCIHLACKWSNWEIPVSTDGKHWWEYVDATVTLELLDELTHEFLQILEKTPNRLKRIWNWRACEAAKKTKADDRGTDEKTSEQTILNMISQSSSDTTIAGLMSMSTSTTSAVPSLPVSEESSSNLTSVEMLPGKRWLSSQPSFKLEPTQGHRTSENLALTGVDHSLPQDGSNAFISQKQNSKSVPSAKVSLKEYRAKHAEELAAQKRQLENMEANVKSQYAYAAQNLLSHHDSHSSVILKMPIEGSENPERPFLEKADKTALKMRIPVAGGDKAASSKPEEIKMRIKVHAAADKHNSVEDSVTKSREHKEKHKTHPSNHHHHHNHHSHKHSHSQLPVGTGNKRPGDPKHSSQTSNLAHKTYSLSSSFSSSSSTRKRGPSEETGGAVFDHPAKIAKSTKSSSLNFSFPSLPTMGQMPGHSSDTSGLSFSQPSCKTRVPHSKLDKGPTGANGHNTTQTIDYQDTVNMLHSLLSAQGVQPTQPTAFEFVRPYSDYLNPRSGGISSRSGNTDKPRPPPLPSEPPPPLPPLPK

For orientation: clearance means the rate of elimination divided by the concentration. Usually bioavailability stands for dose-corrected exposure relative to a reference, in per cent. Consider `C[C@@]1(O)CCC[C@H]1N1C(=O)CCc2cnc(NC3CCN(S(C)(=O)=O)CC3)nc21` [Compound 1A], for which the IC50 on CDK9/CyclinT1 came to 110 nM; with HCT116 cells, 70 nM; in the data set with HCC1806 cells, 155 nM. Further, in data set [1] (Intravenous Injection: 2 mg/kg, read-out: Clearance Rate Cl), the clearance amounted to 36.9 mL/min/kg. Besides, in data set [1] (Intravenous Injection: 2 mg/kg, read-out: Half-Life T1/2 (converted)), the half-life was 16.8 min. In data set [1] (Oral Administration: 10 mg/kg, read-out: Oral Bioavailability F), the bioavailability is 31.4%. Also, the AUC(0-t) in data set [1] (Oral Administration: 10 mg/kg, read-out: Oral Exposure AUC0-t) was determined as 3.37 µM·h.
